A value given as a limit tells only on which side of the number the result lay.

What all share (assay): Z'-LYTE kinase panel
Common to all, as to assay type: biochemical

In one experiment the target is T1, CDK5/p25 (Homo sapiens, UniProt Q00535).
T1 construct: purchased ThermoFisher (SelectScreen, Z'-LYTE)
The essentials: (§1)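 The 225-kinase standard panel was run using the Z′-LYTE protocol, and inhibition was expressed as a percentage relative to uninhibited activity at 10 µM compound.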

Another experiment has as its target T2, CSNK2A2 (CK2 alpha 2) (Homo sapiens, UniProt P19784).
T2 construct: purchased ThermoFisher (SelectScreen, Z'-LYTE)
The essentials:
as §1

The next experiment deals with T3, MATK (HYL) (Homo sapiens, UniProt P42679).
T3 construct: purchased ThermoFisher (SelectScreen, Z'-LYTE)
T3 sequence (P42679 1-507): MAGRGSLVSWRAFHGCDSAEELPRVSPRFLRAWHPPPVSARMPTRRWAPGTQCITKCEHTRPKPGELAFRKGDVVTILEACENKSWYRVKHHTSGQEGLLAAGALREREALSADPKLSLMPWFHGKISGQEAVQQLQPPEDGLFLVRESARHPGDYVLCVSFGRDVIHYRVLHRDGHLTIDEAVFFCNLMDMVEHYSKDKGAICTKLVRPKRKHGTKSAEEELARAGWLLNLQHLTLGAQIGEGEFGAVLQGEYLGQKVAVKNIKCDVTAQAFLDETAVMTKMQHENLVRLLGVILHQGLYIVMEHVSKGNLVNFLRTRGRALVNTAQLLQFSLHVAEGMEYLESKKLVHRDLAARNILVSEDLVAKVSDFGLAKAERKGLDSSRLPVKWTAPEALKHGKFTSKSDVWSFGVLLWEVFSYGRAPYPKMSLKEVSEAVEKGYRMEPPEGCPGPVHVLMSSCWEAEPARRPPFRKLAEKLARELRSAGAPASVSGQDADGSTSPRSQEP
The essentials: as §1

The next experiment concerns the target T4, PRKCB2 (PKC beta II) (Homo sapiens, UniProt P05771).
T4 construct: purchased ThermoFisher (SelectScreen, Z'-LYTE)
In short, it runs like this:
as §1

The target of the next experiment is T5, CDK5/p35 (Homo sapiens, UniProt Q00535).
T5 construct: purchased ThermoFisher (SelectScreen, Z'-LYTE)
T5 sequence (Q00535 whole entry): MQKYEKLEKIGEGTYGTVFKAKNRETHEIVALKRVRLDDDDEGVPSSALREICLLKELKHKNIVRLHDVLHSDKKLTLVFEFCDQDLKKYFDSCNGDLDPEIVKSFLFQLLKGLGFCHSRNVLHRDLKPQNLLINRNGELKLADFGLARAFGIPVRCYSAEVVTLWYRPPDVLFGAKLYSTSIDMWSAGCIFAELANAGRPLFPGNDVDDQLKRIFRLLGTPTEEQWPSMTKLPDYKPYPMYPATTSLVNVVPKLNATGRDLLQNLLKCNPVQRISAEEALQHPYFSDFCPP
T5 sequence (Q15078 whole entry partner): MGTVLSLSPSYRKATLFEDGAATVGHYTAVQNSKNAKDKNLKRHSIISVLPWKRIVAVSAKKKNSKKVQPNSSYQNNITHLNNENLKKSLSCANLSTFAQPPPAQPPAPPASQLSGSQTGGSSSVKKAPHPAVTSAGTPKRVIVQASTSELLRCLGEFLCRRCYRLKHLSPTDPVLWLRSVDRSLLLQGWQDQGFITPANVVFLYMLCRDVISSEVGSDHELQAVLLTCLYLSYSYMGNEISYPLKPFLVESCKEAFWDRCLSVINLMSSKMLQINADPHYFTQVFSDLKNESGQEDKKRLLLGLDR
In short, it runs like this:
as §1

A further experiment addresses T6, DYRK1B (Homo sapiens, UniProt Q9Y463).
T6 construct: purchased ThermoFisher (SelectScreen, Z'-LYTE)
The essentials:
as §1

The target in the next experiment is T7, MST1R (RON) (Homo sapiens, UniProt Q04912).
T7 construct: purchased ThermoFisher (SelectScreen, Z'-LYTE)
T7 sequence (Q04912 25-1400): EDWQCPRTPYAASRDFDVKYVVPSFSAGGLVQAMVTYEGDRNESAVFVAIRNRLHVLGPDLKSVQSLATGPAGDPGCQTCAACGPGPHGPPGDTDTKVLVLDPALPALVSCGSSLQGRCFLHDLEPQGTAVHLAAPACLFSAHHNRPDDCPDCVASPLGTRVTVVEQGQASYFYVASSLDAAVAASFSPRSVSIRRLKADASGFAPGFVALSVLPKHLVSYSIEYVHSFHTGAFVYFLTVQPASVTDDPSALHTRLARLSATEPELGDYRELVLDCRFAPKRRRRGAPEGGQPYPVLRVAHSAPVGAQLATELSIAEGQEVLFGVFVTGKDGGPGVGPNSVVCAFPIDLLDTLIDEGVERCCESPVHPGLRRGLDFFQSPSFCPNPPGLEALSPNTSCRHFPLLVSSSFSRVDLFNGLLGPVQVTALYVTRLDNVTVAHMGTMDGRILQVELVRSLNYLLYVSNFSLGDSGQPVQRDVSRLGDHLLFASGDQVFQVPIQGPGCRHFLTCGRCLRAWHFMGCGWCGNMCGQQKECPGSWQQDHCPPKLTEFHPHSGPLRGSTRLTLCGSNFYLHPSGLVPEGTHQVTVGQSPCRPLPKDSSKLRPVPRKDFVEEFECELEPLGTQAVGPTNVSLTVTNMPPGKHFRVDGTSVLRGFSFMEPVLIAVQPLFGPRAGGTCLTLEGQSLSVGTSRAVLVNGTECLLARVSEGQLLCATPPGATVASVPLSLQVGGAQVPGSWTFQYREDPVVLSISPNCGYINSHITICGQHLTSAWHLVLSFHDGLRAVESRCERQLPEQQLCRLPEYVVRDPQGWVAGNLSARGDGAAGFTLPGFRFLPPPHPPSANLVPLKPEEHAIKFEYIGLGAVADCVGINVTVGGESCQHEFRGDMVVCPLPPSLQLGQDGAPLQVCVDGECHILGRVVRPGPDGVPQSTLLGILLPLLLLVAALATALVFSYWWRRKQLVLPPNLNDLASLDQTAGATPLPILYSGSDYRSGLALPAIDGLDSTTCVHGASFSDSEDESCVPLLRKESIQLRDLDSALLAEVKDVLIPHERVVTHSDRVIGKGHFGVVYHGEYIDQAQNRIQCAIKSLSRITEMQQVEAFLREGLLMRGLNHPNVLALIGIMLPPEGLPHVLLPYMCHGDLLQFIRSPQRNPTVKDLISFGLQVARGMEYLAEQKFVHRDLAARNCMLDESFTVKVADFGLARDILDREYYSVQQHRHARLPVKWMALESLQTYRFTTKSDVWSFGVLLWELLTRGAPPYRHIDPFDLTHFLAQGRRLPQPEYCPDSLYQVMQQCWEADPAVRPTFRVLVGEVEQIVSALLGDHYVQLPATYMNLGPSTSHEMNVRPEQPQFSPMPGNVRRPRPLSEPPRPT
In short, it runs like this:
as §1

The target in the next experiment is T8, TYK2 (Homo sapiens, UniProt P29597).
T8 construct: purchased ThermoFisher (SelectScreen, Z'-LYTE)
T8 sequence (P29597 whole entry): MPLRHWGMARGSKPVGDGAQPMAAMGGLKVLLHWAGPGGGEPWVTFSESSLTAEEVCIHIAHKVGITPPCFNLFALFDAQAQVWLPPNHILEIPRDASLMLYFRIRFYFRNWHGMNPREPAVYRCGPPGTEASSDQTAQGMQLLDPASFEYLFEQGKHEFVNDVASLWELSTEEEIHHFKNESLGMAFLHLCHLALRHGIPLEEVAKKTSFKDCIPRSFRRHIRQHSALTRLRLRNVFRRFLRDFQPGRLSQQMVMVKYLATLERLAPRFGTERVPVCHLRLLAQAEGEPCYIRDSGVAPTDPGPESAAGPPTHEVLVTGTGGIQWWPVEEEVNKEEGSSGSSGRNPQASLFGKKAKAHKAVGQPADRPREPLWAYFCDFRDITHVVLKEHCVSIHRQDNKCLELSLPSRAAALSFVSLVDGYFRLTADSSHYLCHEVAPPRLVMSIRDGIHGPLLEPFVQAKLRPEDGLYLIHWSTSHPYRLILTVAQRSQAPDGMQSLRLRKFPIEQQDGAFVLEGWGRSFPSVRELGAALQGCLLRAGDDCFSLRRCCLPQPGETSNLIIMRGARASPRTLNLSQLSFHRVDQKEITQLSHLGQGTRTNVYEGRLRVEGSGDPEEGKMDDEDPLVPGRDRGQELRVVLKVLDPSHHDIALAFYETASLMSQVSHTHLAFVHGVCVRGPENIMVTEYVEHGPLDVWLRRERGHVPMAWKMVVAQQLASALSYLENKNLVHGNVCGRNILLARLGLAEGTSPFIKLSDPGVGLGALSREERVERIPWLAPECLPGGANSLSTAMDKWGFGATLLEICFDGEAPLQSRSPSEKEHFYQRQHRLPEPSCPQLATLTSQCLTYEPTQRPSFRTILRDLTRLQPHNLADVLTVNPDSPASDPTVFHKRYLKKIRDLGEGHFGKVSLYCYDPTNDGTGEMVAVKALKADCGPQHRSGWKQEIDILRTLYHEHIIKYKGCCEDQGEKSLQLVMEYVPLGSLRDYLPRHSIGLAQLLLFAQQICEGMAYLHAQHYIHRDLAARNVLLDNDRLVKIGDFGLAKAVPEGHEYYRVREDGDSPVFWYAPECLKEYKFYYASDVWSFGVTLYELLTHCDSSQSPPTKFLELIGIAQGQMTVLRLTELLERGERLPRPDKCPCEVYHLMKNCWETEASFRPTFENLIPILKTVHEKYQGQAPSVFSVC
The following applies: 10 µM compound, ATP Km app. The essentials:
as §1

In the next experiment the target is T9, EPHB3 (Homo sapiens, UniProt P54753).
T9 construct: purchased ThermoFisher (SelectScreen, Z'-LYTE)
T9 sequence (P54753 34-998): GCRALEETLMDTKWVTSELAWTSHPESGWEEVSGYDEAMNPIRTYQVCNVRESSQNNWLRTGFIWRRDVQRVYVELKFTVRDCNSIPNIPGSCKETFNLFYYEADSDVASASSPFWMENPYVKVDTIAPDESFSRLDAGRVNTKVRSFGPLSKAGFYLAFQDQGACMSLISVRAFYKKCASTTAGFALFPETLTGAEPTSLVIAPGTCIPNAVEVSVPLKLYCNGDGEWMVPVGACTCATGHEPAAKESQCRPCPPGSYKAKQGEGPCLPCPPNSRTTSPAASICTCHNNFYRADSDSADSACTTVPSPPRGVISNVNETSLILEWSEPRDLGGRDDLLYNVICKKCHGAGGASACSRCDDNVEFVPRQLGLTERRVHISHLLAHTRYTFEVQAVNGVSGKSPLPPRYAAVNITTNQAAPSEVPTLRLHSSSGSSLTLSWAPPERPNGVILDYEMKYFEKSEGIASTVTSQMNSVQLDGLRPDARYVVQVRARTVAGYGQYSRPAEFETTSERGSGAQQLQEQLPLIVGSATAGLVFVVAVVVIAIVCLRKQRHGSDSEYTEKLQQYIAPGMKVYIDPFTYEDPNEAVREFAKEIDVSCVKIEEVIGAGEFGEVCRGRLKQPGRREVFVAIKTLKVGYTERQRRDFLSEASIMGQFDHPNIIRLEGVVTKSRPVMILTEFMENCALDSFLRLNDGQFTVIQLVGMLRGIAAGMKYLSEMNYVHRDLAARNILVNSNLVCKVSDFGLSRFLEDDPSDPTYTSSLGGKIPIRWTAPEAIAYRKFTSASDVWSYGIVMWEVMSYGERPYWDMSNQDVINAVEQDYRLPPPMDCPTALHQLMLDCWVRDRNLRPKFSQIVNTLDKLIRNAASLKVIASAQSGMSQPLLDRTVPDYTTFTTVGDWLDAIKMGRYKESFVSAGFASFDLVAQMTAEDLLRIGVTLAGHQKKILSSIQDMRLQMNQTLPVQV
In short, it runs like this:
as §1

In the next experiment the target is T10, ADRBK2 (GRK3) (Homo sapiens, UniProt P35626).
T10 construct: purchased ThermoFisher (SelectScreen, Z'-LYTE)
T10 sequence (P35626 1-688): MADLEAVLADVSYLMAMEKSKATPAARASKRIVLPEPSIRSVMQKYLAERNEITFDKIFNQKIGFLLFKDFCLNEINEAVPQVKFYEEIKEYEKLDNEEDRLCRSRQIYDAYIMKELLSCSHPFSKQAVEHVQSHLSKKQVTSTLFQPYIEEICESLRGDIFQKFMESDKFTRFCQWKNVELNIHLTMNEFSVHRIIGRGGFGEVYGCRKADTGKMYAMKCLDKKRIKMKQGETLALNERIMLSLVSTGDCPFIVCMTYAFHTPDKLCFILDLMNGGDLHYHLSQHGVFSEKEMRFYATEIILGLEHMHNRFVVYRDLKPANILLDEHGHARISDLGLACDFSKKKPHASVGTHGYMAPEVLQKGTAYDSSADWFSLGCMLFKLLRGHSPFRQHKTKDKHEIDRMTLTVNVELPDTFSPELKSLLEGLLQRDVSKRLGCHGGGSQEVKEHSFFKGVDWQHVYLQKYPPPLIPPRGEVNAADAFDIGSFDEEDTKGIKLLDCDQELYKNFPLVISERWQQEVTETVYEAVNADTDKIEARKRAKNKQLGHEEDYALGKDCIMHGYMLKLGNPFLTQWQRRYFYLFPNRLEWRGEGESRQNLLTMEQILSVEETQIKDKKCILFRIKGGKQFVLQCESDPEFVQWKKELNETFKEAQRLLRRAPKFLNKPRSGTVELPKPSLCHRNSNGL
In short, it runs like this: as §1

In another experiment the target is T11, PRKCA (PKC alpha) (Homo sapiens, UniProt P17252).
T11 construct: purchased ThermoFisher (SelectScreen, Z'-LYTE)
In short, it runs like this: as §1

Another experiment has as its target T12, PRKCG (PKC gamma) (Homo sapiens, UniProt P05129).
T12 construct: purchased ThermoFisher (SelectScreen, Z'-LYTE)
In short, it runs like this:
as §1

T6 sequence (Q9Y463 whole entry): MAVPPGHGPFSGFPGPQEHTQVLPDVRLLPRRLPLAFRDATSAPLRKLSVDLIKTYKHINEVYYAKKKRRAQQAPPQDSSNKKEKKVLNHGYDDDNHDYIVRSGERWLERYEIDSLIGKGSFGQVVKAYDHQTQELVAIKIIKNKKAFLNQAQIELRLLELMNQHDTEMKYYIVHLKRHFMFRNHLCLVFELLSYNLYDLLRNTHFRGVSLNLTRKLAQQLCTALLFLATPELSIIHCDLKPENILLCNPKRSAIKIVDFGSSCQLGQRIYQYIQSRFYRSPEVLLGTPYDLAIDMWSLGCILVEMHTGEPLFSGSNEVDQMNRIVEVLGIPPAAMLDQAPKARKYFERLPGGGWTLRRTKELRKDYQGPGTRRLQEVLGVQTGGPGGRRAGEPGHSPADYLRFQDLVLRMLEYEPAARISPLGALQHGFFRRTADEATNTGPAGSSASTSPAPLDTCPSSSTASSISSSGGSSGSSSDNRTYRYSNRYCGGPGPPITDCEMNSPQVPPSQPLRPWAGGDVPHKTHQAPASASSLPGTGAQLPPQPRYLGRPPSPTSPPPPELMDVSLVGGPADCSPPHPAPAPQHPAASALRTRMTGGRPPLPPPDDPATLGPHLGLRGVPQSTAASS
T1 sequence (Q00535 whole entry): as the sequence (Q00535 whole entry) above
T1 sequence (Q15078 99-307 partner limits assumed): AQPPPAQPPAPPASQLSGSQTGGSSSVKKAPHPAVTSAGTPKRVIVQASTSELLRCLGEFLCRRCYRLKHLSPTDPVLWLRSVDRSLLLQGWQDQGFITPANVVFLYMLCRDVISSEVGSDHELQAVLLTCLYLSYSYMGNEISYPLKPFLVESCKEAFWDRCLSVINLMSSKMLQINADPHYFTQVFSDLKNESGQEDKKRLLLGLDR
T4 sequence (P05771 1-673 isoform P05771-2): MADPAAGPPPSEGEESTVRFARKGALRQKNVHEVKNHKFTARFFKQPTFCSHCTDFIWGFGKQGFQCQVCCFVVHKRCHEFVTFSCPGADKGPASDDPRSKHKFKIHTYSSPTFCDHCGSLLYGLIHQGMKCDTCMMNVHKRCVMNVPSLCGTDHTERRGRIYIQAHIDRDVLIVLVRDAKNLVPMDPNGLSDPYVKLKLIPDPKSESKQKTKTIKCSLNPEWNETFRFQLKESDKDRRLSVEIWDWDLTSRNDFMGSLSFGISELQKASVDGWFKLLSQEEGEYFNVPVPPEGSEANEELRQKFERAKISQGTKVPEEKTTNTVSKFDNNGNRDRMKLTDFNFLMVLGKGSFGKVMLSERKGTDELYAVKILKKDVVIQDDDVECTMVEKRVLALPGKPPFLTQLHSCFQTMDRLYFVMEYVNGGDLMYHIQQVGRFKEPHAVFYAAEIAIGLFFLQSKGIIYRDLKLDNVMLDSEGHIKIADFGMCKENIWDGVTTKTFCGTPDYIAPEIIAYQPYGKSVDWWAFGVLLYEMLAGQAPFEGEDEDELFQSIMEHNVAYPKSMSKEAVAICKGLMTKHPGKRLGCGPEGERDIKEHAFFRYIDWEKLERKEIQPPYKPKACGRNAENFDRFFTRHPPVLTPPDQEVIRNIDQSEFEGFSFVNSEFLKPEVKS

With “XMD8-92 [Compound 2, reference compound]”, the “CDK5/p25 % Inhibition” value at CDK5/p25 (10 µM compound, ATP Km app) turned out to be 38%. Moreover, on CSNK2A2 (CK2 alpha 2) (10 µM compound, ATP Km app), the “CSNK2A2 (CK2 alpha 2) % Inhibition” value was -1.72%. Further, the “MATK (HYL) % Inhibition” value on MATK (HYL) (10 µM compound, ATP Km app) turned out to be 2.46%. In addition, at PRKCB2 (PKC beta II) (10 µM compound, ATP Km app), the “PRKCB2 (PKC beta II) % Inhibition” value was determined as 38%. Further, the “CDK5/p35 % Inhibition” value on CDK5/p35 (10 µM compound, ATP Km app) turned out to be 77%. The “DYRK1B % Inhibition” value at DYRK1B (10 µM compound, ATP Km app) was 12%. The “MST1R (RON) % Inhibition” value at MST1R (RON) (10 µM compound, ATP Km app) is listed as 37%. The “TYK2 % Inhibition” value at TYK2 was determined as 36%. In addition, the “EPHB3 % Inhibition” value at EPHB3 (10 µM compound, ATP Km app) turned out to be 22%. In addition, the “ADRBK2 (GRK3) % Inhibition” value on ADRBK2 (GRK3) (10 µM compound, ATP Km app) is -7%. In addition, at PRKCA (PKC alpha) (10 µM compound, ATP Km app), the “PRKCA (PKC alpha) % Inhibition” value is recorded as 47%. In addition, at PRKCG (PKC gamma) (10 µM compound, ATP Km app), the “PRKCG (PKC gamma) % Inhibition” value was 62%.
Regarding `Cc1cc(Nc2nc(N)nn2C(=O)NC(C)C)ccc1Cl` [Compound 5], the inhibition (commonly the relative decrease from the control value, in per cent) at 10 µM is 77% against CDK5/p25; 1.46% on CSNK2A2 (CK2 alpha 2); -1.63% against MATK (HYL); -12% against PRKCB2 (PKC beta II); 71% at CDK5/p35; -4% on DYRK1B. The inhibition at 10 µM against MST1R (RON) was 1.17%; at TYK2, above 80%; against EPHB3, 0.2%; against ADRBK2 (GRK3) it was -7%; at PRKCA (PKC alpha), 7%; against PRKCG (PKC gamma), 10%. Moreover, the “TYK2 % Inhibition” value at TYK2 (listed as SN1109056190, 10 µM) was 94%.
Turning to `Cc1ncc(-c2nc(Nc3ccc(C(=O)NCCN4CCCCC4)cc3)ncc2F)n1C(C)C` [Compound 3], the inhibition at 10 µM worked out at 99% against CDK5/p25; 77% at CSNK2A2 (CK2 alpha 2); 0.522% on MATK (HYL); 89% on PRKCB2 (PKC beta II); 106% on CDK5/p35; 100% against DYRK1B. For the same molecule, the inhibition at 10 µM came out at 67% on MST1R (RON); 101% against TYK2; 51% on EPHB3; 0.689% against ADRBK2 (GRK3); 102% at PRKCA (PKC alpha); 89% against PRKCG (PKC gamma).
